# In patent US5143910A, “Piperaziniocephalosporins” (Shionogi & Co., Ltd., priority 1989, dated 1992):
# Read-outs that look alike come from different tables or passages of the source.
# Tests used:
# [1] = test system: Pseudomonas aeruginosa ATCC 25619; experiment: MIC on agar plate by two fold dilution (Japan Society of Chemotherapy) against Pseudomonas aeruginosa ATCC 25619; assay type: cell-based; settings: ATCC25619, P. aeruginosa ATCC 25619, in 0.01N-sodium hydrogen carbonate, read-out: minimal inhibitory concentration (MIC)
# From the text: By altering the groups with the followings, the activity varied as below (AT=2-amino-4-thiazolyl).
# [2] = test system: Pseudomonas aeruginosa SR 24; experiment: MIC against Pseudomonas aeruginosa SR 24; assay type: cell-based; settings: SR24
# [3] = test system: Pseudomonas aeruginosa SR 5018; experiment: MIC against ofloxacin resistant Pseudomonas aeruginosa SR 5018; assay type: cell-based
# [4] = test system: Pseudomonas aeruginosa SR 24; experiment: 50% effective dose for preventing mouse from death caused by Pseudomonas aeruginosa SR 24; assay type: in vivo
# Procedure: The 50% effective dose of compound (I) where R^1 is 2-(2-amino-4-thiazolyl)-2-(1-carboxy-1-methylethoxy)imino-acetamido, R^2 is hydrogen, R^3 is methyl, R^4 R^5 is 3,4-dihydroxybenzoyl, R^6 combined with Y^- is a negative charge, X is sulfur for preventing mouse from the death caused by Pseudomonas aeruginose SR 24 is 1.25 mg/kg.
# [5] = test system: Pseudomonas aeruginosa SR 4967; experiment: ED50 against Pseudomonas aeruginosa SR 4967; assay type: in vivo; settings: SR4967, mouse
# [6] = test system: Serratia marcescens A 13880; experiment: ED50 against Serratia marcescens A 13880; assay type: in vivo; settings: A13880, mouse
# [7] = test system: Morgania morganii; experiment: antibacterial activity against clinically isolated Morgania morganii; assay type: cell-based
# [8] = test system: Enterobacter cloacae; experiment: antibacterial activity against clinically isolated Enterobacter cloacae; assay type: cell-based
# [9] = antibacterial activity against clinically isolated Clostridium freundii; assay type: cell-based
# [10] = urinary and bile juice recovery after subcutaneous injection; assay type: in vivo; settings: urine and bile, sc; during 2 hours after subcutaneous injection (20 mg/kg); read-out: urinary and bile juice recovery (total)
# [11] = safety test, intravenous injection, mouse; assay type: in vivo; settings: dose up to 1 g/kg
# [12] = safety test, intravenous injection, rabbit; assay type: in vivo; settings: dose up to 1 g/kg
smiles,measurement,setting,value
C=C(O/N=C(\C(=O)N[C@@H]1C(=O)N2C(C(=O)[O-])=C(C[N+]3(C)CCN(C(=O)c4ccc(O)c(O)c4)CC3)CS[C@H]12)c1csc(N)n1)C(=O)O [No. 17],MIC,[1],0.05 µg/mL
CC(C)(O/N=C(\C(=O)N[C@@H]1C(=O)N2C(C(=O)[O-])=C(C[N+]3(C)CCN(C(=O)c4cc(Cl)c(O)c(O)c4Cl)CC3)CS[C@H]12)c1csc(N)n1)C(=O)O [No. 13],MIC,[1],0.02 µg/mL
CC(C)(O/N=C(\C(=O)N[C@@H]1C(=O)N2C(C(=O)[O-])=C(C[N+]3(C)CCN(C(=O)c4cc(O)c(O)cc4Cl)CC3)CS[C@H]12)c1csc(N)n1)C(=O)O [No. 12],MIC,[1],0.02 µg/mL
CO/N=C(\C(=O)N[C@@H]1C(=O)N2C(C(=O)[O-])=C(C[N+]3(C)CCN(C(=O)c4ccc(O)c(O)c4)CC3)CS[C@H]12)c1csc(N)n1 [No. 3],MIC,[1],0.05 µg/mL
CO[C@@]1(NC(=O)CSC(F)F)C(=O)N2C(C(=O)[O-])=C(C[N+]3(C)CCN(C(=O)c4ccc(O)c(O)c4)CC3)CO[C@@H]21 [No. 1],MIC,[1],> 100 µg/mL
CC(C)(O/N=C(\C(=O)N[C@@H]1C(=O)N2C(C(=O)[O-])=C(C[N+]3(C)CCN(Cc4ccc(O)c(O)c4)CC3)CS[C@H]12)c1csc(N)n1)C(=O)O [No. 15],MIC,[1],0.1 µg/mL
"CC(C)(O/N=C(\C(=O)N[C@@H]1C(=O)N2C(C(=O)[O-])=C(C[N+]3(C)CCN(C(=O)c4ccc(O)c(O)c4Cl)CC3)CS[C@H]12)c1csc(N)n1)C(=O)O [No. 9, 7β-[2-(2-aminothiazol-4-yl)-2-(1-carboxy-1-methylethoxyimino)acetamido]-3-[4-(2-chloro-3,4-dihydroxybenzoyl)-1-methylpiperazinio-1-yl]methyl-3-cephem-4-carboxylate]",MIC,[1],0.02 µg/mL
"CC(C)(O/N=C(\C(=O)N[C@@H]1C(=O)N2C(C(=O)[O-])=C(C[N+]3(C)CCN(C(=O)c4ccc(O)c(O)c4)CC3)CS[C@H]12)c1csc(N)n1)C(=O)O [No. 8, 7β-[2-(2-amino-4-thiazolyl)-2-(1-carboxy-1-methylethoxyimino)acetamido]-3-[4-(3,4-dihydroxybenzoyl)-1-methylpiperazinio-1-yl]methyl-3-cephem-4-carboxylate]",MIC,[2],0.1 µg/mL
same,MIC,"[3]; SR5018, ofloxacin resistant Pseudomonas aeruginosa SR 5018",0.05 µg/mL
same,times more potent (MIC) than BO-1341,"[3]; vs 0.4 γ/ml of BO-1341, P. aeruginosa SR 5018",8 times
same,times more potent (MIC) than E-1040,"[3]; vs 6.3 γ/ml of E-1040, P. aeruginosa SR 5018",126 times
same,times more potent (MIC) than ceftazidime,"[3]; vs 25 γ/ml of ceftazidime, P. aeruginosa SR 5018",500 times
same,ED50,"[4]; Pseudomonas aeruginosa, SR24, read-out: 50% effective dose for preventing mouse from death",1.25 mg/kg
same,ED50,"[4]; SR24, mouse, Pseudomonas aeruginosa SR 24, read-out: ED50 (mouse)",1.41 mg/kg
same,"times more potent (ED50) than reference 3-(3,4-dihydroxybenzyl) compound","[4]; vs 3.4 mg/kg of the reference, P. aeruginosa SR 24",2.4 times
same,times more potent (ED50) than reference 3-(dihydroxyphenylthiadiazolylthio)methyl compound,"[4]; vs 16.3 mg/kg of the reference, P. aeruginosa SR 24",11.6 times
same,ED50,[5],4.91 mg/kg
same,ED50,[6],0.28 mg/kg
same,antibacterial activity,[7],high antibacterial activity
same,antibacterial activity,[8],high antibacterial activity
same,antibacterial activity,[9],high antibacterial activity
same,dose excreted at 2 h,[10],70.4%
same,death,[11],did not show death
same,death,[12],did not show death
C[N+]1(CC2=C(C(=O)[O-])N3C(=O)[C@@H](NC(=O)Cc4ccccc4)[C@H]3SC2)CCN(C(=O)c2ccc(O)c(O)c2)CC1 [No. 2],MIC,[1],> 100 µg/mL
CC(C)(O/N=C(\C(=O)N[C@@H]1C(=O)N2C(C(=O)[O-])=C(C[N+]3(C)CCN(C(=O)c4cc(O)c(O)c(Cl)c4)CC3)CS[C@H]12)c1csc(N)n1)C(=O)O [No. 11],MIC,[1],0.02 µg/mL
COc1cc(C(=O)N2CC[N+](C)(CC3=C(C(=O)[O-])N4C(=O)[C@@H](NC(=O)C(=NOC(C)(C)C(=O)O)c5csc(N)n5)[C@H]4SC3)CC2)ccc1O [No. 14],MIC,[1],3.1 µg/mL
CO/N=C(\C(=O)N[C@@H]1C(=O)N2C(C(=O)[O-])=C(C[N+]3(C)CCN(CC(=O)c4ccc(O)c(O)c4)CC3)CS[C@H]12)c1csc(N)n1 [No. 6],MIC,[1],0.05 µg/mL
